Patent publication US20210038661A1, “TREATMENT OF TUMORS BY A COMBINATION OF AN ONCOLYTIC ADENOVIRUS AND A CDK4/6 INHIBITOR” (KLINIKUM RECHTS DER ISAR DER TECHNISCHEN UNIVERSITÄT MÜNCHEN, priority 2018, published 2021)

What was measured:
UMUC3 cells [1] = assay: Cell cycle analysis (EdU/PI flow cytometry) of UMUC3 cells; assay type: cell-based, human; conditions: 48 hours; Roscovetine 10 μM, CI-1040 1 μM, Nutlin-3a 10 μM, LEE011 10 μM
Method: FIG. 10 is a bar diagram showing cell cycle distribution in UMUC3 cells, measured 48 hours post treatment, whereby the concentrations of the CDK4/6 inhibitors was as follows: Roscovetine: 10 μM, CI-1040: 1 μM, Nutlin-3a: 10 μM, and LEE011: 10 μM.
For cell cycle analysis cells were seeded in 6 well plates (2,5×10E4 c/well). 8 hours before infection with dl703, cells were treated with indicated concentration of cell cycle inhibitors. After infection with 10 MOI dl703 cells were again treated for 48 hours. Untreated cells and dl703 infected cells only, served as control. 48 h post infection cells were harvest by trypsinization and fixed with 80% ethanol while vortexing. To investigate the cell cycle status, fixed cells were centrifuged 5 min at RT and 300 g and ethanol was aspirated. Cells were resuspended and washed with 1%BSA-PBS (Bovine Serum Albumin) and again centrifuged. Cells were stained with EDU and cell cycle analysis were performed using the Click-iT™ Plus EdU Flow Cytometry Assay Kits, Catalog nos. C10632 from Thermo Fischer. In addition, after 3× times washing with 1% BSA/PBS cells were stained with PI (Propidium Iodine, 50 μg/ml). Measurement was directly performed after staining with a FACScalibur Flow Cytometry System. Data was analyzed with FlowJo software.

UMUC cells = assay: Western blot of Rb, phRB and E2F-1 in UMUC cells treated with cell cycle inhibitors; assay type: cell-based, human; conditions: 24 hours post-treatment; for Rb, phRB and E2F-1 expression: indicated concentrations
Method: Western Blot analysis of UMUC cells treated with indicated concentrations of CI-1040, Roscovitine, Nutlin-3a and LEE011 (Ribociclib). 1×10^6 cells were seeded in 10 cm dishes. 24 hours post-treatment proteins were isolated using 1% SDS buffer, to achieve the disruption of the nuclear membrane. All samples were drawn up several times into a syringe to disrupt the DNA and subsequently centrifuged at 30000 rpm at 4° C. for 30 minutes. The supernatant was transferred to a new reaction tube and directly used for further steps or stored at −80° C. To separate the proteins a sodium dodecyl sulfate polyacrylamide gel electrophoresis was performed. By means of electrophoresis for approximately two hours at 100V at 4° C., 40 μg of total proteins were loaded and probed against specific indicated antibodies.

dl703 = assay: DNA-replication analysis of dl703 in UMUC cells treated with cell cycle inhibitors (fiber qPCR); assay type: cell-based, Mastadenovirus, Type C, Serotype 5
Method: To investigate the differences in replication of d1703 (Mantwill et al. 2013, Journal of Translational Medicine, 11, 216) under different treatment conditions, DNA-replication analysis was performed. 100.000 UMUC cells were seeded in 6-well plates and grown in DMEM medium containing 10% FCS in 5% CO2 conditions at 37° C. 24 hours post seeding cells were treated for 24 hours with 10 μM Lee (Ribociclib), 1 μM CI-1040, 10 μM Nutlin-3a and 10 μM Roscovertine and again after infection adding an appropriate amount of inhibitors to the medium. Infection with 50 MOI dl703 (Mastadenovirus, Type C, Serotype 5 with a 3.2 kb sized deletion in E1 region) took place 24 hours post treatment. After 4 and 48 hours post infection DNA were isolated and qPCR was performed using specific primers for the viral fiber gene. Fiber fwd. 5′-[…]-3′; Fiber rev. 5′-[…]-3′.

RT112 = assay: IC50 concentration of PD-0332991 in bladder cancer cell line RT112; assay type: cell-based; conditions: Homo sapiens, RT-112
Method: (§1) The class of CDK4/6 inhibitors as subject to Example 5 requires expression of RB. Therefore, three RB positive and two RB negative bladder cancer derived cell lines were used and the cells treated with the combination therapy. Cell lines were pretreated for 24 hours with an IC50 concentration of PD-0332991 (T24: 500 nM, RT112: 2000 nM, 253J: 100 nM) and infected with XVir-N-31(T24 M0150, 253J MOI 25, RT112 MOI450). Values are the average of at least 2 independent experiments. Error bars show the standard error. Four dpi, cell viability was measured using SRB assays (a, c). (b, d) Lysates of cells were prepared 3 dpi and a titer test was performed on Hek293 cells. Viral titer is shown as fold change relative to control

T24 = assay: IC50 concentration of PD-0332991 in bladder cancer cell line T24; assay type: cell-based; conditions: Homo sapiens, T-24
Method: as §1

253J = assay: IC50 concentration of PD-0332991 in bladder cancer cell line 253J; assay type: cell-based; conditions: Homo sapiens
Method: as §1

SK-N-MC cells [2] = assay: Cell cycle distribution (propidium iodine) of SK-N-MC cells; assay type: cell-based; conditions: 48 hours post treatment
Method: 48 hours post treatment cells were washed twice took place with PBS (containing RNase A,100 U/ml). Cells were trypsinized and centrifuged at 1500 rpm, 4° C. for 5 min. Cells are fixed by adding slowly 1 ml of ice-cold 80% Ethanol drop by drop to the pellet and incubated overnight. Staining was performed by adding 1 ml of staining solution (Propidium Iodine,50 μg/ml) to the cells and incubating 30-60 min at RT with gentle rocking. MK: MK-1775; LY: LY-2835219.

SK-N-MC cells [3] = assay: Potency assay (SRB) of SK-N-MC cells, XVir-N-31, Abemaciclib and JQ1; assay type: cell-based; conditions: 500 nM JQ1 added to 200 nM Abemaciclib, XVir-N-31, 5 days post infection
Method: FIG. 16 is a bar diagram showing the result of a potency assay of SK-N-MC cells 5 days after exposure to XVir-N-31 alone, with 200 nM abemaciclib, 500 nM JQ1 or a combination of 200 nM abemaciclib and 500 nM JQ1, as percentage cell survival, whereby the cells were either not infected or infected with an MOI of 5, 10 or 20.
100.000 SK-N-MC cells/well were seeded in 12-well plates and grown in RPMI Medium containing 10% FCS at 5% CO2 at 37° C. Cells were treated with 200 nM Abemaciclib+500 nM JQ1 24 hours before and again 1 hour post infection by adding appropriate amount to the medium. Infection of XVir-N-31 took place in 500 μl in RPMI Medium without serum. SRB-Staining took place 5 days post infection. Mock treated cells were set 100% cell survival.

T24 cells [4] = assay: Potency assay (SRB) of T24 cells, XVir-N-31, Palbociclib and JQ-1; assay type: cell-based, human
Method: 5000 T24 cells were seeded in 12 well plates and grown in 1 ml RPMI-Medium containing 10% FCS. Next day cells were treated with 500 nM Palbociclib and 300 nM JQ-1. 24 hours post treatment cells were infected with indicated MOIs of XVir-N-31 in 200 μl RPMI-Medium containing no FCS. After 1 hour 800 μl RPMI-Medium containing 10% FCS were added into each well. In addition, 500 nM Palbociclib and 300 nM JQ-1 were added to the medium. SRB-Staining took place 5 days post infection. Mock treated cells were set 100% cell survival.

UMUC3 cells [5] = assay: IC-80 value of PARPi in UMUC3 cells; assay type: cell-based; conditions: Homo sapiens
Method: Seeding of UMUC-3: 3000 cells were seeded per well in 12-well plates and grown over-night in DMEM Medium containing 10% FCS at 37° C. Inhibitor-treatment of cell occurred 24 h past seeding and again 1 hour after infection by adding indicated concentration to the medium. Infection of cells took place 24 h past inhibitor-treatment. Fixation and SRB-staining took place at 1-6 days post infection (dpi: days post infection). 160 nM PARPi correspond to the IC-80 value in UMUC3 cells.

T24 cells [6] = assay: IC-80 value of PARPi in T24 cells; assay type: cell-based; conditions: Homo sapiens, T-24
Method: 3000 T24 cells were seeded per well in 12-well plates and grown over-night in RPMI Medium containing 10% FCS at 37° C. Inhibitor-treatment of cells occurred 24 h past cell seeding and again 1 hour after infection by adding indicated concentration to the medium. Infection of cells took place 24 h past inhibitor-treatment in 250 μl Medium without serum. Fixation and SRB-staining took place at 1-5 days post infection (dpi: days post infection). 15 nM PARPi correspond to the IC-80 value in T24 cells.

Which cell cycle distribution (UMUC3 cells [1]) does the source give for `COc1ccc(C2=N[C@@H](c3ccc(Cl)cc3)[C@@H](c3ccc(Cl)cc3)N2C(=O)N2CCNC(=O)C2)c(OC(C)C)c1` [Nutlin-3a] here?
The cell cycle distribution was “only little or no effect”.

And the “Rb, phRB and E2F-1 expression” value (UMUC cells)?
The value was “no pronounced effect”.

Which cell cycle distribution (UMUC3 cells [1]) does the source give for `CC[C@H](CO)Nc1nc(NCc2ccccc2)c2ncn(C(C)C)c2n1` [Roscovitine] here?
Its cell cycle distribution is “slight increase of G2/m arrested cells”.

What about the “Rb, phRB and E2F-1 expression” value (UMUC cells) of the same molecule?
The value was “no pronounced effect”.

What does the source list for `O=C(NOCC1CC1)c1ccc(F)c(F)c1Nc1ccc(I)cc1Cl` [CI-1040]?
viral DNA replication of dl703 (dl703; 1 μM, 50 MOI dl703): much lower compared to Ribociclib treated cells; cell cycle distribution (UMUC3 cells [1]): clear G1-arrest; E2F-1 as well as Rb and phRb expression (UMUC cells; 1 μM): induced inhibition

Which results are given for `CC(=O)c1c(C)c2cnc(Nc3ccc(N4CCNCC4)cn3)nc2n(C2CCCC2)c1=O` [PD-0332991, palbociclib]?
IC50 (RT112): 2000 nM; IC50 (T24): 500 nM; IC50 (253J): 100 nM

With `C=CCn1c(=O)c2cnc(Nc3ccc(N4CCN(C)CC4)cc3)nc2n1-c1cccc(C(C)(C)O)n1` [MK-1775] as the molecule, how does the cell cycle distribution (SK-N-MC cells [2]; 500 nM, alone) read?
Its cell cycle distribution is “increase of cells in G2/M”.

Which results are given for `CN(C)C(=O)c1cc2cnc(Nc3ccc(N4CCNCC4)cn3)nc2n1C1CCCC1` [LEE011, ribociclib]?
increase of viral DNA replication of dl703 (dl703; 10 μM, 50 MOI dl703, 48 hours post infection): ~100 fold; cell cycle distribution (UMUC3 cells [1]): clear G1-arrest; E2F-1 as well as Rb and phRb expression (UMUC cells; 10 μM): induced inhibition

Which cell killing (SK-N-MC cells [3]) does the source give for `Cc1sc2c(c1C)C(c1ccc(Cl)cc1)=N[C@@H](CC(=O)OC(C)(C)C)c1nnc(C)n1-2` [JQ1, thieno-triazolo-1-4-diazepine] here?
Its cell killing is “did not increase cell killing”.

And the “cell killing capacity of XVir-N-31” value (T24 cells [4]; 300 nM JQ-1 with 500 nM Palbociclib, low MOIs, 5 days post infection)?
The value was “increased the cell killing capacity”.

And the “cell killing of XVir-N-31” value (T24 cells [4]; mono-therapy with 300 nM JQ1, 10 and 20 MOI)?
The value was “did not increase cell killing”.

With `CCN1CCN(Cc2ccc(Nc3ncc(F)c(-c4cc(F)c5nc(C)n(C(C)C)c5c4)n3)nc2)CC1` [LY-2835219, abemaciclib] as the molecule, how does the cell cycle distribution (SK-N-MC cells [2]) read?
Its cell cycle distribution is “no effect”.

`Cn1ncnc1[C@H]1c2n[nH]c(=O)c3cc(F)cc(c23)N[C@@H]1c1ccc(F)cc1` [BMN673] was tested. Which IC80 (UMUC3 cells [5]) did it give?
The IC80 was 160 nM.

And the IC80 (T24 cells [6])?
Its IC80 is 15 nM.
